Data published in ChEMBL document CHEMBL5614367, “Hydroxamic acid hybrids: Histone deacetylase inhibitors with anticancer therapeutic potency” (Eur J Med Chem, 2023).

Key:
[1] = molecular target: T1, Protein deacetylase HDAC6 (Homo sapiens, UniProt Q9UBN7); test: Inhibition of HDAC6 (unknown origin)
T1 sequence (Q9UBN7 whole entry): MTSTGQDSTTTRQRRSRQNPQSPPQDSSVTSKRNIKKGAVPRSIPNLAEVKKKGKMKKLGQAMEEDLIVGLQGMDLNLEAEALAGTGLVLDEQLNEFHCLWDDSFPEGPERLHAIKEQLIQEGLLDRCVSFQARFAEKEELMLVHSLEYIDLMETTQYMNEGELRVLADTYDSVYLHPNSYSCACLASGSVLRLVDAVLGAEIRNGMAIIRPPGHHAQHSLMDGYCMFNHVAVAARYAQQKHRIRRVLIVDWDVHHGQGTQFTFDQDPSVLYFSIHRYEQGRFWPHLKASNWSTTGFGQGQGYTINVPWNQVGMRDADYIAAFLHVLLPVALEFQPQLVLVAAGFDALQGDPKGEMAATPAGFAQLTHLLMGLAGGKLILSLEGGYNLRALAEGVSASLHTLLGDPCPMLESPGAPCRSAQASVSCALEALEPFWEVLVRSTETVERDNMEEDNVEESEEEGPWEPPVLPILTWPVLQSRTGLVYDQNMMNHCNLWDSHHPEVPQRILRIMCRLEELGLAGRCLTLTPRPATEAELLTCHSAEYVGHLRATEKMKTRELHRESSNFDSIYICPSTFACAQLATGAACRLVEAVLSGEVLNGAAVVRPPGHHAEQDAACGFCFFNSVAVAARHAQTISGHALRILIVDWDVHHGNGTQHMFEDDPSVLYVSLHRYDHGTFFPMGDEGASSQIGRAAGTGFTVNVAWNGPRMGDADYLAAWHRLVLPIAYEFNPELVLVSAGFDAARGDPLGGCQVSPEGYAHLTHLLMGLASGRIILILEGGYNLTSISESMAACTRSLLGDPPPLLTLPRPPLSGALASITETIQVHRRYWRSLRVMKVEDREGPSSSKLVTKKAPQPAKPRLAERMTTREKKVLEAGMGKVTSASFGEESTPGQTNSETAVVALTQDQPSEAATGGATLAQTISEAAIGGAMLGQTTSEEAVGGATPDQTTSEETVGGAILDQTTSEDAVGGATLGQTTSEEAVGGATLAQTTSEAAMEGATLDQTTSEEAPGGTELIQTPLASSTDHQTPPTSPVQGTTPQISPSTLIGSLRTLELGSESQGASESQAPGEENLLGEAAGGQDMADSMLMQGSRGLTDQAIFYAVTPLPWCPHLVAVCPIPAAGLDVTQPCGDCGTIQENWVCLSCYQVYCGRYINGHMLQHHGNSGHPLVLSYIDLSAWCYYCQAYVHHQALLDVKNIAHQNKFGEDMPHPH

MCF7 [2] = test: cells; details: Homo sapiens
HCT-116 [3] = test: cells; details: Homo sapiens
HepG2 [4] = test: Antiproliferative activity against human HepG2 cells; format: functional, cell-based
HeLa [5] = test: Antiproliferative activity against human HeLa cells; format: functional, cell-based
SGC-7901 = test: Antiproliferative activity against human SGC-7901 cells; format: functional, cell-based
MDA-MB-231 = test: Antiproliferative activity against human MDA-MB-231 cells
A549 [6] = test: Antiproliferative activity against human A549 cells
A-375 = test: Antiproliferative activity against human A-375 cells; format: functional, cell-based
HL-60 = test: Antiproliferative activity against human HL-60 cells; format: functional, cell-based
PC-3 = test: Antiproliferative activity against human PC-3 cells incubated for 72 hrs by colorimetric method; format: functional, cell-based; details: PC-3, 72 h
NCI-H23 = test: Antiproliferative activity against human NCI-H23 cells incubated for 72 hrs by colorimetric method; format: functional, cell-based; details: NCI-H23, 72 h
SW-620 = test: Antiproliferative activity against human SW620 cells incubated for 72 hrs by colorimetric method; format: functional, cell-based; details: SW-620, 72 h
MGC-803 = test: Antitumor activity against human MGC-803 cells xenografted in mouse assessed as tumor growth inhibition at 20 mg/kg relative to control; format: functional; details: read-out: TGI
KYSE-450 = test: Antiproliferative activity against human KYSE-450 cells; format: functional, cell-based
Histone deacetylase 1 = Histone deacetylase 1 (Homo sapiens, UniProt Q13547); test: Inhibition of HDAC1 (unknown origin)
[7] = molecular target: Phosphatidylinositol 4,5-bisphosphate 3-kinase catalytic subunit alpha isoform (Homo sapiens, UniProt P42336); test: Inhibition of PI3Kalpha (unknown origin)
A2780 = test: Antiproliferative activity against human A2780 cells; format: functional, cell-based
Jurkat = test: Antiproliferative activity against human Jurkat cells; format: functional, cell-based
[8] = molecular target: Tyrosine-protein kinase JAK2 (Homo sapiens, UniProt O60674); test: Inhibition of JAK2 (unknown origin)
Histone deacetylase = test: Inhibition of HDAC (unknown origin); format: protein assay, Homo sapiens
HCT-116 [9] = test: Antiproliferative activity against human HCT-116 cells measured after 24 hrs by MTT assay; format: functional, cell-based; details: HCT-116, 24 h
MCF7 [10] = test: Antiproliferative activity against human MCF7 cells assessed as cell growth inhibition by SRB assay; format: functional
HeLa [11] = test: Antiproliferative activity against human HeLa cells assessed as cell growth inhibition by SRB assay; format: functional
HeLa [12] = test: Antiproliferative activity against human HeLa cells measured after 24 hrs by MTT assay; format: functional, cell-based
HepG2 [13] = test: Antiproliferative activity against human HepG2 cells measured after 24 hrs by MTT assay; format: functional, cell-based; details: HepG2, 24 h
K562 = test: Antiproliferative activity against human K562 cells assessed as cell growth inhibition by SRB assay; format: functional
A549 [14] = test: Antiproliferative activity against human A549 cells assessed as cell growth inhibition by SRB assay; format: functional

Sequence of Histone deacetylase 1 (Q13547 whole entry, canonical isoform): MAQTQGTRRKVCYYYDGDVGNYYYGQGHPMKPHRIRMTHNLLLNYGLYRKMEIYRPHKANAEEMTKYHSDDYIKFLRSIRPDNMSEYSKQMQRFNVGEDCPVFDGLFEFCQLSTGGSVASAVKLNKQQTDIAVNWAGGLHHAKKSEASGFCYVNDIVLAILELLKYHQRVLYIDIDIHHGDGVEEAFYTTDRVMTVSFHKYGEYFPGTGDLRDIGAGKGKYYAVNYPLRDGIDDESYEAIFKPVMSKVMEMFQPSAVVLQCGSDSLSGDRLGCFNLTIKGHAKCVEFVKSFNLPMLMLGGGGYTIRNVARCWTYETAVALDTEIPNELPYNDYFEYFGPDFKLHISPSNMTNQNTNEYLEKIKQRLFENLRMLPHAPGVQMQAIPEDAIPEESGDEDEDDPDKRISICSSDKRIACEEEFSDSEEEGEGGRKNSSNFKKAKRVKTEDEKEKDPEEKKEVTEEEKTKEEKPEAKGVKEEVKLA
Sequence of Tyrosine-protein kinase JAK2 (O60674 whole entry): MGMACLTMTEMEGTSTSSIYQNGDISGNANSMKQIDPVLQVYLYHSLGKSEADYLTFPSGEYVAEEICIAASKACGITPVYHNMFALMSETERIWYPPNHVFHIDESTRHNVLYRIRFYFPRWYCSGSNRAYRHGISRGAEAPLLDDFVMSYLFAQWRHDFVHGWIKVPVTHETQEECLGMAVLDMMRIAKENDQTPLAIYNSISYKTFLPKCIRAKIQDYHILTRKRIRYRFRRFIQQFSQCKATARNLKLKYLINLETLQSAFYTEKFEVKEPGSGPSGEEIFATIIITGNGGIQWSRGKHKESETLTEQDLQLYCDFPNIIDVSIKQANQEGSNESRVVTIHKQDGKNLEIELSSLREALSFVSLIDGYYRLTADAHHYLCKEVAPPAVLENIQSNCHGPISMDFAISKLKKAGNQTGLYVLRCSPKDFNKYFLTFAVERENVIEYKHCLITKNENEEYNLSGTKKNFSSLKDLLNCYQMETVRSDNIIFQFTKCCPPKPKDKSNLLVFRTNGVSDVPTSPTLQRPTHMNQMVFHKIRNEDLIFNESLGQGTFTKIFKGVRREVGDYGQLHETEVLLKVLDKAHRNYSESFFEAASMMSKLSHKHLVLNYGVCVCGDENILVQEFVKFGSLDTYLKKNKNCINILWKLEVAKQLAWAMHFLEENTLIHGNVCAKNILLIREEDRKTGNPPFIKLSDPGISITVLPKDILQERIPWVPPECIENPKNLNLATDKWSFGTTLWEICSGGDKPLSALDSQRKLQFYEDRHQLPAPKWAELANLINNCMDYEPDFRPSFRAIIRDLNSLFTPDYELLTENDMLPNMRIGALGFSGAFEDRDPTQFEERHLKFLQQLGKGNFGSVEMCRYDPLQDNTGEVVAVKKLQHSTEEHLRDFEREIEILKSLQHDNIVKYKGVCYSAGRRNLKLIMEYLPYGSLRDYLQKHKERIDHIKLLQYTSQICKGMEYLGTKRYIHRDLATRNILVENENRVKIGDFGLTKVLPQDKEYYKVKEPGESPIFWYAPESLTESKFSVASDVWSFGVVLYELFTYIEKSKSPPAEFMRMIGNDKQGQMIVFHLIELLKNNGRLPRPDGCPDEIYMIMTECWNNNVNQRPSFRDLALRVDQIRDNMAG
Sequence of Phosphatidylinositol 4,5-bisphosphate 3-kinase catalytic subunit alpha isoform (P42336 whole entry, canonical isoform): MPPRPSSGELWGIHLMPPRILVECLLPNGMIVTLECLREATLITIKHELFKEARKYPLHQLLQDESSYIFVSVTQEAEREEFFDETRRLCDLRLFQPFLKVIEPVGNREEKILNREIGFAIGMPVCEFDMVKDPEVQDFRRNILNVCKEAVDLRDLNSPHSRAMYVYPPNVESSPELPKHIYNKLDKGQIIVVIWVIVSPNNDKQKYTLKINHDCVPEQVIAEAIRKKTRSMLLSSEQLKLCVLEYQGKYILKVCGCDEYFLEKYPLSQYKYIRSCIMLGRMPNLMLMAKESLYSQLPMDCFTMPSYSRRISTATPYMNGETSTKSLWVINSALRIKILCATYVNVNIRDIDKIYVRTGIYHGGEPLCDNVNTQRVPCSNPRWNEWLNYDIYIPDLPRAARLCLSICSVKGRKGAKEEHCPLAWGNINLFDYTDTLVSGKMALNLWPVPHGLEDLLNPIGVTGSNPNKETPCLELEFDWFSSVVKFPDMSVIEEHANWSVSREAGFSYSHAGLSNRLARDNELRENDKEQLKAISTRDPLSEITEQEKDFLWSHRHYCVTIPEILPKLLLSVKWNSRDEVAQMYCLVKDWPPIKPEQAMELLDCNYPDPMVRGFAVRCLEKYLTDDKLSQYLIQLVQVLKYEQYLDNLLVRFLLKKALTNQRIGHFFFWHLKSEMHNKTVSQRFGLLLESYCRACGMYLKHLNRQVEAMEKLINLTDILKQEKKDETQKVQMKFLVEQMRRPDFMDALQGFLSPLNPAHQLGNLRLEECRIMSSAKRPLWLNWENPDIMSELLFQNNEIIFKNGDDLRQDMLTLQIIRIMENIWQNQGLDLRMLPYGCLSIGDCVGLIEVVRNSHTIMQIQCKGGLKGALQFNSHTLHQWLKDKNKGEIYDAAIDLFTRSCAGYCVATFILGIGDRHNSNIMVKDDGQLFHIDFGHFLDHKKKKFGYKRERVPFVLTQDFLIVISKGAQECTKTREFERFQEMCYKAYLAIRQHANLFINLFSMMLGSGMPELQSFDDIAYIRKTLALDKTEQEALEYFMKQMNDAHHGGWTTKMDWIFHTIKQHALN

SMILES: COc1cc(OCCCCCCC(=O)NO)ccc1C1c2ccc(O)cc2CCN1CC(C)(C)F (stereo unspecified)
- IC50 [1]: 0.026 µM
- IC50 (MCF7 [2]): 1.96 µM

SMILES: COc1ccc2cc(C(=O)Oc3cccc(/C=C/C(=O)NO)c3)c(=O)oc2c1
- IC50 (MCF7 [2]): 6.91 µM
- IC50 (HCT-116 [3]): 6.91 µM
- IC50 (HepG2 [4]): 6.91 µM
- IC50 (HeLa [5]): 6.91 µM

SMILES: O=C(Cc1ccc(C(=O)NO)cc1)Nc1ccc2ncnc(Nc3ccc(I)cc3)c2c1
- IC50 (SGC-7901): 2.2 µM
- IC50 (MDA-MB-231): 2.2 µM
- IC50 [1]: 16.3 µM
- IC50 (MCF7 [2]): 2.2 µM
- IC50 (HCT-116 [3]): 2.2 µM
- IC50 (A549 [6]): 2.2 µM
- IC50 (A-375): 2.2 µM
- IC50 (HL-60): 2.2 µM

SMILES: CN1c2ccc(NCc3ccc(/C=C/C(=O)NO)cc3)cc2C(=O)N2CCc3c([nH]c4ccc(O)cc34)C21 (stereo unspecified)
- IC50 (MCF7 [2]): 0.18 µM
- IC50 (A549 [6]): 0.18 µM

SMILES: CN1c2ccc(NCC3CCN(c4ncc(C(=O)NO)cn4)CC3)cc2C(=O)N2CCc3c([nH]c4ccc(O)cc34)C21 (stereo unspecified)
- IC50 (MCF7 [2]): 0.23 µM
- IC50 (A549 [6]): 0.23 µM

SMILES: CC/C(=C(\c1ccccc1)c1ccc(OCCN(C)C)cc1)c1ccccc1 [TAMOXIFEN]
- IC50 (MCF7 [2]): 22.5 µM

SMILES: O=C(Cc1ccc(C(=O)NO)cc1)Nc1ccc2ncnc(Nc3ccc(Cl)c(F)c3)c2c1
- IC50 (SGC-7901): 2.2 µM
- IC50 (MDA-MB-231): 2.2 µM
- IC50 [1]: 1.49 µM
- IC50 (MCF7 [2]): 2.2 µM
- IC50 (HCT-116 [3]): 2.2 µM
- IC50 (A549 [6]): 2.2 µM
- IC50 (A-375): 2.2 µM
- IC50 (HL-60): 2.2 µM

SMILES: O=C(NO)c1csc(NS(=O)(=O)Nc2ccccc2)n1
- IC50 (PC-3): 1.45 µM
- IC50 (NCI-H23): 1.45 µM
- IC50 (SW-620): 1.45 µM

SMILES: CNC(=O)c1ccccc1Nc1nc(Nc2ccc(N3CCOCC3)cc2OC)ncc1Cl
- IC50 (HCT-116 [3]): 0.719 µM
- inhibition in vivo at 20 mg/kg (MGC-803): 22.3%
- IC50 (KYSE-450): 0.719 µM

SMILES: COc1ncc(-c2ccc3ncc(C(=O)NCCCCCCC(=O)NO)cc3c2)cc1NS(=O)(=O)c1ccc(F)cc1F
- IC50 (Histone deacetylase 1): 0.0048 µM
- IC50 [7]: 0.0013 µM
- IC50 (A2780): 2.31 µM

SMILES: Cc1cccc(Nc2nc(Nc3ccc(NC(=O)CCCCCCC(=O)NO)cc3)ncc2C)c1
- IC50 (Histone deacetylase 1): 0.0022 µM
- IC50 (MDA-MB-231): 0.37 µM
- IC50 (Jurkat): 0.37 µM
- IC50 (HepG2 [4]): 0.37 µM
- IC50 (A549 [6]): 0.37 µM
- IC50 [8]: 0.0006 µM

SMILES: CC(C)(C)OC(=O)Nc1cccc(-c2cc(C(=O)NCCCCCCC(=O)NO)no2)c1
- IC50 (Histone deacetylase): 0.0058 µM

SMILES: COc1cccc2c1C(=O)c1c(O)c3c(c(O)c1C2=O)C[C@@](O)(C(=O)CO)C[C@@H]3O[C@H]1C[C@H](N)[C@H](O)[C@H](C)O1 [DOXORUBICIN]
- IC50 (HCT-116 [9]): 4.17 µM
- GI50 (MCF7 [10]): < 10 µM
- GI50 (HeLa [11]): < 10 µM
- IC50 (HeLa [12]): 4.17 µM
- IC50 (HepG2 [13]): 4.17 µM
- GI50 (K562): < 10 µM
- GI50 (A549 [14]): < 10 µM

SMILES: COc1cccc(Nc2nc(Nc3ccc(NC(=O)CCCCCCC(=O)NO)cc3)ncc2C)c1
- IC50 (Histone deacetylase 1): 0.0319 µM
- IC50 (MDA-MB-231): 0.14 µM
- IC50 (Jurkat): 0.14 µM
- IC50 (HepG2 [4]): 0.14 µM
- IC50 (A549 [6]): 0.14 µM
- IC50 [8]: 0.0005 µM
